The source of these data is paper PMC8952208, “Synthesis, Antiplasmodial, and Antileukemia Activity of Dihydroartemisinin–HDAC Inhibitor Hybrids as Multitarget Drugs” (Pharmaceuticals, 2022).

One experiment concerns P. falciparum Dd2. The experiment in a line: microbe, parasite or virus in culture. Particulars: Plasmodium falciparum, DD2, 72 h, read-out: PfDd2 IC50. In kind it is cell-based. The method, then:
(§1) [38, 39] […] After three days of incubation at 37 °C, 5% CO2 and 5% O2 plates were frozen until analyzed by HRP2-ELISA. All compounds were evaluated in duplicate in at least two independent experiments. The IC50 was determined by nonlinear regression analysis of log concentration-response curves using the drc-package v3.0.1 [40] of R v4.0.5..

For a further experiment, the system named is P. falciparum 3D7. Put plainly: microbe, parasite or virus in culture. In kind it is cell-based. Particulars: Plasmodium falciparum, 3D7, 72 h; asexual blood stages, three days incubation; n ≥ 2 in duplicate, mean ± SD; read-out: Pf3D7 IC50. The method, then: as §1
The next experiment has as its system A2780 cells. The experiment in a line: MTT cell viability assay. In kind it is cell-based. Particulars: Homo sapiens, 72 h, n ≥ 3 in triplicate, mean ± SD. The method, then:
Reagents were obtained from PAN Biotech, Aidenbach Germany. The cell line was cultured at 37 °C under humidified air with 5% CO2 to a confluence of 80–90% before being used for further assays.
Intrinsic cytotoxicity of test compounds was determined by an MTT assay as previously described. A2780 cells were seeded in 96-well plates (Starlab GmbH, Hamburg, Germany) at a density of 20,000 cells/well and allowed to attach for 12 h. Cells were then treated with increasing concentrations of the test compounds. After 72 h, MTT (3-(4,5-dimethylthiazol-2-yl)-2,5-diphenyltetrazolium bromide) (BioChemica, Applichem GmbH, Darmstadt, Germany) solution (5 mg/mL in phosphate-buffered saline) was added to determine cell survival. The formazan dye was dissolved in DMSO (Sigma-Aldrich, Darmstadt, Germany) after 1 h. Absorbance was measured at 570 nm and 690 nm in a Multiskan microplate photometer (Thermo Fisher Scientific, Waltham, MA, USA). Concentration-response curves were generated using the four-parameter logistic equation (GraphPad Prism 9.0, San Diego, USA), and mean IC50 values were calculated in triplicates based on at least three different experiments.
For orientation: Formazan colour is commonly taken as a measure of viable cells.

Another experiment relates to NALM6 cells. The experiment in a line: CellTiter-Glo cell viability assay, NALM6. In kind it is cell-based, human. Particulars: Homo sapiens, NALM-6; B-ALL; 72 h, CellTiter-Glo, n = 3. On the procedure:
(§2) Healthy individually-derived fibroblasts were cultured in DMEM supplemented with 10% FCS. Regular cell line authentication was performed short tandem repeat (STR) analysis (DNA fingerprinting), followed by comparison with the original DSMZ cell line database.
(§3) Cell viability assay was performed with leukemic cell lines after 72 h incubation with the respective inhibitors using ATP-based CellTiter-Glo luminescent assay (Promega, Madison, WI, USA).
A general note: Cellular ATP, detected with luciferase, serves as a proxy for viable cell number.

A further experiment deals with HPBALL cells. Put plainly: CellTiter-Glo cell viability assay, HPBALL. In kind it is cell-based, human. Particulars: Homo sapiens, HPBALL; T-ALL; 72 h, CellTiter-Glo, n = 3. The method, then:
as §2, §3

Another experiment relates to K562 cells. Put plainly: CellTiter-Glo cell viability assay, K562. In kind it is cell-based, human. Particulars: Homo sapiens, K562; CML; 72 h, CellTiter-Glo, n = 3. The method, then:
as §2, §3

Another experiment has as its target T1, human HDAC6 (hHDAC6) (Homo sapiens, UniProt Q9UBN7).
T1 construct: purchased BPS Bioscience Inc. 50006
T1 sequence (Q9UBN7 1-1215): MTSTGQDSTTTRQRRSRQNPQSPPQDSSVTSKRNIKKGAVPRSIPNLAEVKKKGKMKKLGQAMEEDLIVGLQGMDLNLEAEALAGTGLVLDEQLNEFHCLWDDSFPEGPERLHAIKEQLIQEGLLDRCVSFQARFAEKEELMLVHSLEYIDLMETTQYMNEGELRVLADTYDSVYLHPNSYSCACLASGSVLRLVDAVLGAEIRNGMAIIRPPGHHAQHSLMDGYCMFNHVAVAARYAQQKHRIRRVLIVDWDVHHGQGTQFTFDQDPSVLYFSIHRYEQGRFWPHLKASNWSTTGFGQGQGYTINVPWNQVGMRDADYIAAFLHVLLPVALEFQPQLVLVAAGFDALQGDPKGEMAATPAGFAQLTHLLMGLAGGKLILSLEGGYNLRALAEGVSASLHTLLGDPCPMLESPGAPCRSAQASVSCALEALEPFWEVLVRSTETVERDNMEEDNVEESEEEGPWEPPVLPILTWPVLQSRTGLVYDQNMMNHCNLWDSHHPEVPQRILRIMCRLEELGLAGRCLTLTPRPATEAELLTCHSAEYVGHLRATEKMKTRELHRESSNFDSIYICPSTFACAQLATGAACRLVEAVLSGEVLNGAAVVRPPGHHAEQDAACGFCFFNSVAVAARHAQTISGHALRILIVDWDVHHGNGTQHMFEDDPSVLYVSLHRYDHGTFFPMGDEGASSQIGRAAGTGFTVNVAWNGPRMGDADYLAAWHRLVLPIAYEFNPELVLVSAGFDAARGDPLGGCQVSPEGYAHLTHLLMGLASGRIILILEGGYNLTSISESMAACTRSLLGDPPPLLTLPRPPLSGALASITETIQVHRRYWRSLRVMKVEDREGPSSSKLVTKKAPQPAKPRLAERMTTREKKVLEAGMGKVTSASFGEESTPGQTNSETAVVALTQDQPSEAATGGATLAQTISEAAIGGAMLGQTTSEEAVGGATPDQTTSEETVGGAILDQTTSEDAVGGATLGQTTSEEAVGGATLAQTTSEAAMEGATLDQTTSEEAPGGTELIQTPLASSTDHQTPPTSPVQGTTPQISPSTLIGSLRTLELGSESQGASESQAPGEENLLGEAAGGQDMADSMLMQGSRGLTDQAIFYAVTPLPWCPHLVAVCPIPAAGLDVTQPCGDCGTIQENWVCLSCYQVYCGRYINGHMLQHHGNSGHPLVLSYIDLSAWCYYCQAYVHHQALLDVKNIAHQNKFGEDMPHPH
The experiment in a line: In vitro human HDAC6 assay (ZMAL substrate). In kind it is biochemical. Particulars: for SI 1/6: Selectivity Index = (hHDAC1 IC50)/(hHDAC6 IC50). The method, then:
(§4) OptiPlate-96 black microplates (Perkin Elmer Inc., Waltham, MA, USA) were used with an assay volume of 50 µL. […] After an incubation time of 90 min, 50 µL of 0.4 mg/mL trypsin in trypsin buffer (50 mM Tris-HCl, pH 8.0, and 100 mM NaCl) was added, followed by further incubation at 37 °C for 30 min.

The target in the next experiment is T2, human HDAC1 (hHDAC1) (Homo sapiens, UniProt Q13547).
T2 construct: purchased BPS Bioscience Inc. 50051
T2 sequence (Q13547 whole entry): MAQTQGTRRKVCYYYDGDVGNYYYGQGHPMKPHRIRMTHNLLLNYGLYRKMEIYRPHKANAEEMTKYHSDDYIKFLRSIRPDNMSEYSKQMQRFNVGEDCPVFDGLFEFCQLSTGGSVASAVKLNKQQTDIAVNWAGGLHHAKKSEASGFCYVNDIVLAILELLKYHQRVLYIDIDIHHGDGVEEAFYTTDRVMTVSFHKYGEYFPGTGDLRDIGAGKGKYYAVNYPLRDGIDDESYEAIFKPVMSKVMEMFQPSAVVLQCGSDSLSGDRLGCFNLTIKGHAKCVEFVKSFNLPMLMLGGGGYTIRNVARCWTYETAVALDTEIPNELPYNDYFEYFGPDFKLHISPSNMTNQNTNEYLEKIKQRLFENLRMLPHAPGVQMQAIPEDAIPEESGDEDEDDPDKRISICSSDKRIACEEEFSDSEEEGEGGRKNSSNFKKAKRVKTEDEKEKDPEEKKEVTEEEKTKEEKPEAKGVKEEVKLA
The experiment in a line: In vitro human HDAC1 assay (ZMAL substrate). In kind it is biochemical. On the procedure: as §4

For a further experiment, the system named is MOLM13 cells. Put plainly: CellTiter-Glo cell viability assay, MOLM13. In kind it is cell-based, human. Particulars: Homo sapiens, MOLM-13; AML; 72 h, CellTiter-Glo, n = 3. The method, then:
as §2, §3

The subject of a further experiment is HL60 cells. The experiment in a line: CellTiter-Glo cell viability assay, HL60. In kind it is cell-based, human. Particulars: Homo sapiens, HL-60; AML; 72 h, CellTiter-Glo, n = 3. On the procedure:
as §2, §3

Experiment [1] concerns five leukemia cell lines (K562, HL60, NALM6, HPBALL, MOLM13). Put plainly: CellTiter-Glo cell viability assay, panel of five leukemia cell lines. In kind it is cell-based, human. Particulars: number of the five leukemia cell lines in which DHA is exceeded. The method, then: as §2, §3

A value given as a limit tells only on which side of the number the result lay.

Turning to `C[C@@H]1CC[C@H]2[C@@H](C)C(OCc3ccc(/C=C/C(=O)O)cc3)O[C@@H]3O[C@@]4(C)CC[C@@H]1[C@]32OO4` (stereo partly drawn) [Compound 6a, (E)-3-(4-((((3R,5aS,6R,8aS,9R,12R,12aR)-3,6,9-Trimethyldecahydro-12H-3,12-epoxy[1,2]dioxepino[4,3-i]isochromen-10-yl)oxy)methyl)phenyl)acrylic acid], the IC50 (usually the point on the concentration scale where inhibition reaches its midpoint) was 0.0058 ± 0.0028 µM in the experiment with P. falciparum Dd2; 0.0059 ± 0.0007 µM in the experiment with P. falciparum 3D7; 3.38 ± 0.21 µM with A2780 cells; 1.31 ± 0.11 µM in the experiment on NALM6 cells; 23.9 ± 4.69 µM in the experiment with HPBALL cells; 4.01 ± 0.6 µM with K562 cells. Also, the IC50 against human HDAC6 (hHDAC6) is above 10 µM; on human HDAC1 (hHDAC1) it was above 10 µM; in the experiment on MOLM13 cells, 0.68 ± 0.09 µM; in the experiment on HL60 cells, 2.53 ± 0.56 µM.
Take `C[C@H]1[C@H](Sc2ccc(CC(=O)NO)cc2)O[C@@H]2O[C@@]3(C)CC[C@H]4[C@H](C)CC[C@@H]1[C@@]24OO3` [(β)-7e, N-Hydroxy-2-(4-(((3R,5aS,6R,8aS,9R,10S,12S,12aR)-3,6,9-trimethyldecahydro-12H-3,12-epoxy[1,2]dioxepino[4,3-i]isochromen-10-yl)thio)phenyl)acetamide]: the IC50 turned out to be 0.0016 ± 0.0008 µM with P. falciparum Dd2; 0.0026 ± 0.0013 µM with P. falciparum 3D7; 2.09 ± 0.42 µM in the experiment with A2780 cells; 0.77 ± 0.08 µM with NALM6 cells; 20.6 ± 6.13 µM in the experiment on HPBALL cells; 1.71 ± 0.33 µM with K562 cells. The IC50 against human HDAC6 (hHDAC6) was 1 ± 0.13 µM; on human HDAC1 (hHDAC1), above 10 µM; with MOLM13 cells, 0.64 ± 0.17 µM. For the same compound, the “SI 1/6” value on human HDAC6 (hHDAC6) is above 10.
`C[C@@H]1CC[C@H]2[C@@H](C)C(OCc3ccc(/C=C/C(=O)Nc4ccccc4N)cc3)O[C@@H]3O[C@@]4(C)CC[C@@H]1[C@]32OO4` (stereo partly drawn) [Compound 8, (E)-N-(2-Aminophenyl)-3-(4-((((3R,5aS,6R,8aS,9R,12R,12aR)-3,6,9-trimethyldecahydro-12H-3,12-epoxy[1,2]dioxepino[4,3-i]isochromen-10-yl)oxy)methyl)phenyl)acrylamide]: the IC50 with P. falciparum Dd2 was 0.0025 ± 0.00014 µM; in the experiment on P. falciparum 3D7, 0.0025 ± 0.0014 µM; in the experiment on A2780 cells it was 1.47 ± 0.98 µM; with NALM6 cells, 0.34 ± 0.03 µM; with HPBALL cells it was 1.69 ± 0.19 µM; in the experiment with K562 cells, 0.69 ± 0.11 µM. Also, the IC50 is above 10 µM at human HDAC6 (hHDAC6), above 3.33 µM against human HDAC1 (hHDAC1), 0.49 ± 0.08 µM in the experiment on MOLM13 cells and 1.64 ± 0.17 µM in the experiment with HL60 cells. Further, at human HDAC1 (hHDAC1), the inhibition (in general, how much of the control response was suppressed) at 3.33 µM turned out to be 41%. Further, the “antiproliferative activity compared to DHA” value in experiment [1] is “exceeded the antiproliferative potential of DHA in four out of five cell lines”.
On to `C[C@H]1[C@@H](Sc2ccc(CC(=O)NO)cc2)O[C@@H]2O[C@@]3(C)CC[C@H]4[C@H](C)CC[C@@H]1[C@@]24OO3` [(α)-7e, N-Hydroxy-2-(4-(((3R,5aS,6R,8aS,9R,10R,12S,12aR)-3,6,9-trimethyldecahydro-12H-3,12-epoxy[1,2]dioxepino[4,3-i]isochromen-10-yl)thio)phenyl)acetamide], for which the IC50 in the experiment with P. falciparum Dd2 came out at 0.0018 ± 0.0008 µM; in the experiment on P. falciparum 3D7, 0.0031 ± 0.0007 µM; in the experiment on A2780 cells, 1.83 ± 0.1 µM; in the experiment with NALM6 cells it was 0.44 ± 0.01 µM; with HPBALL cells it was 3.34 ± 0.37 µM; in the experiment on K562 cells it was 0.77 ± 0.24 µM. For the same compound, the IC50 is 1.1 ± 0.075 µM against human HDAC6 (hHDAC6), above 10 µM at human HDAC1 (hHDAC1), 0.45 ± 0.18 µM in the experiment on MOLM13 cells and 1.62 ± 0.12 µM in the experiment with HL60 cells. The “SI 1/6” value at human HDAC6 (hHDAC6) is given as above 9.
